Data taken from ChEMBL document CHEMBL1777769, “Synthesis and characterisation of a novel tubulin-directed DO3A-colchicine conjugate with potential theranostic features” (Bioorg Med Chem Lett, 2011).
Activity calls are given as the source filed them. No cut-off for these calls is given here.

Assays:
Assay type in all cases: functional, cell-based
[1] = test system: OVCAR-3; test: Cytotoxicity against human OVCAR3 cells assessed as reduction in viable cells after 24 hrs by trypan blue exclusion assay
[2] = test system: OVCAR-3; test: Cytotoxicity against human OVCAR3 cells assessed as cell death after 24 hrs by trypan blue exclusion assay
[3] = test system: OVCAR-3; test: Cytotoxicity against human OVCAR3 cells assessed as change in cell shape after 24 hrs by trypan blue exclusion assay

SMILES | Activity [1] | Activity [2] | Activity [3]
COc1cc2c(c(OC)c1OC)-c1ccc(OC)c(=O)cc1[C@@H](NC(C)=O)CC2 | Active | Active | Active
COc1cc2c(c(OC)c1OC)-c1ccc(OC)c(=O)cc1[C@@H](NC(=O)CN1CCN(CC(=O)O)CCN(CC(=O)O)CCN(CC(=O)O)CC1)CC2 | – | Active | Active
